According to patent US8604016B2, “Heterocyclic inhibitors of glutaminase” (Calithera Biosciences Inc., priority 2011, dated 2013):
Where two headings read alike, the source gives them in different places.

Biological target: recombinant form of Glutaminase 1 (GAC) (Homo sapiens, UniProt O94925)
Assay: Recombinant Enzyme Assay (GAC coupled to GDH, NADH absorbance, no preincubation)
Assay type: biochemical
Details: read-out: GAC Delta N2 IC50 no preinc
Protocol: Enzymatic reaction was started with the addition of 50 μL of enzyme solution (50 mM Tris-HCl pH 8.0, 0.2 mM EDTA, 150 mM K2HPO4, 0.1 mg/ml BSA, 1 mM DTT, 10 ppm antifoam, 4 units/ml GDH, 4 mM adenosine diphosphate, and 4 nM GAC) and read in a Molecular Devices M5 plate reader at 20° C. The plate reader was configured to read absorbance (λ=340 nm) in kinetic mode for 15 minutes. Data was recorded as milli-absorbance units per minute and slopes were compared to a control compound and a DMSO-only control on the same plate. Compounds with slopes less than the DMSO control were considered inhibitors and plate variability was assessed using the control compound.

| IC50 (no preincubation) [nM] | Compound | IC50 [nM] |
| --- | --- | --- |
| 1700 | CC[C@](O)(C(=O)Nc1nnc(CCSCCc2nnc(NC(=O)[C@@](O)(CC)c3ccccc3)s2)s1)c1ccccc1 [Compound 141] |  |
| 210 | CCCCOC(=O)Nc1nnc(CCCCc2nnc(NC(=O)Cc3ccccc3)s2)s1 [Compound 388] |  |
| 560 | Cc1cc(C)n(CC(=O)Nc2nnc(CCSCCc3nnc(NC(=O)Cn4nc(C)cc4C)s3)s2)n1 [Compound 97] |  |
| 24000 | O=C(Cn1cccn1)Nc1nnc(CCCCc2nnc(NC(=O)Cn3cccn3)s2)s1 [Compound 60] |  |
| > 20000 | O=C(Cc1coc2ccccc12)Nc1nnc(CCSCCc2nnc(NC(=O)Cc3coc4ccccc34)s2)s1 [Compound 221] |  |
| 620 | CC(C)(C)OC(=O)N1CCCC(CC(=O)Nc2nnc(CCCCc3nnc(NC(=O)CC4CCCN(C(=O)OC(C)(C)C)C4)s3)s2)C1 (centres unmarked) [Compound 115] |  |
| 3400 | N[C@@H](CO)C(=O)Nc1nnc(CCCCc2nnc(NC(=O)[C@@H](N)CO)s2)s1 [Compound 140] |  |
| 270 | COc1ccc(OC)c(CC(=O)Nc2nnc(CCCc3nnc(NC(=O)Cc4cc(OC)ccc4OC)s3)s2)c1 [Compound 265] |  |
| 100 | O=C(Cc1ccccc1)Nc1nnc(CCCCc2nnc(NC(=O)Cc3ccccc3CO)s2)s1 [Compound 333] |  |
| > 50000 | O=C(Nc1nnc(CCSCCc2nnc(NC(=O)[C@@H]3CCCN3C(=O)C(F)(F)F)s2)s1)[C@@H]1CCCN1C(=O)C(F)(F)F [Compound 22] |  |
| > 20000 | CC(C)(C)c1ccc(CC(=O)Cc2nnc(CCCCc3nnc(NC(=O)Cc4ccc(C(C)(C)C)cc4)s3)s2)cc1 [Compound 191] |  |
| 15000 | O=C(Cc1cc2ccccc2s1)Nc1nnc(CCCCc2nnc(NC(=O)Cc3cc4ccccc4s3)s2)s1 [Compound 233] |  |
| 680 | CC1(C)OCC(C(=O)Nc2nnc(CCCCc3nnc(NC(=O)Cc4ccccc4)s3)s2)(c2ccccc2)O1 (centres unmarked) [Compound 279] |  |
|  | O=C(Cc1ccccc1CO)Nc1nnc(CCCCc2nnc(NC(=O)Cc3ccccc3CO)s2)s1 [Compound 208] | 170 |
| 24000 | COCCC(=O)Nc1nnc(CCSCCc2nnc(NC(=O)CCOC)s2)s1 [Compound 101] |  |
| > 20000 | O=C(Cc1ccc(C(F)(F)F)cc1)Nc1nnc(CCSCCc2nnc(NC(=O)Cc3ccc(C(F)(F)F)cc3)s2)s1 [Compound 183] |  |
| 690 | O=C(Nc1nnc(CCCCc2nnc(NC(=O)C(O)Cc3ccccc3)s2)s1)C(O)Cc1ccccc1 (centres unmarked) [Compound 69] |  |
| > 20000 | O=C(Nc1nnc(CCCCc2nnc(NC(=O)[C@@H]3CC3c3ccccc3)s2)s1)C1CC1c1ccccc1 (some centres unmarked) [Compound 90] |  |
| 920 | COCC(C(=O)Nc1nnc(CCSCCc2nnc(NC(=O)C(COC)c3ccccc3)s2)s1)c1ccccc1 (centres unmarked) [Compound 204] |  |
| 9900 | Nc1nnc(CCCCc2nnc(NC(=O)C(CO)c3ccccc3)s2)s1 (centres unmarked) [Compound 227] |  |
| 290 | O=C(Cc1ccccc1)Nc1nnc(CCCCc2nnc(NC(=O)C(O)(CO)c3ccccc3)s2)s1 (centres unmarked) [Compound 280] |  |
| > 50000 | O=C(Cc1ccccc1)Nc1nnc(CCSCCc2nnc(N(COC(=O)OCCCN3CCOCC3)C(=O)Cc3ccccc3)s2)s1 [Compound 27] |  |

| IC50 (no preincubation) [nM] | Compound | IC50 [nM] |
| --- | --- | --- |
| 2200 | CC(=O)NCC(C(=O)Nc1nnc(CCCCc2nnc(NC(=O)C(CNC(C)=O)c3ccccc3)s2)s1)c1ccccc1 (centres unmarked) [Compound 266] |  |
| 2300 | O=C(Nc1nnc(CCCCc2nnc(NC(=O)[C@@H](O)[C@H](O)c3ccccc3)s2)s1)[C@@H](O)[C@H](O)c1ccccc1 [Compound 226] |  |
| 7000 | O=C(Nc1nnc(CCCCc2nnc(NC(=O)C3Oc4ccccc4O3)s2)s1)C1Oc2ccccc2O1 [Compound 136] |  |
| 240 | O=C(Cc1c(F)cccc1F)Nc1nnc(CCCCc2nnc(NC(=O)Cc3c(F)cccc3F)s2)s1 [Compound 293] |  |
| > 20000 | O=C(Nc1nnc(CCSCCc2nnc(NC(=O)c3coc4ccccc34)s2)s1)c1coc2ccccc12 [Compound 218] |  |
| 160 | CCOc1ccccc1CC(=O)Nc1nnc(CCCCc2nnc(NC(=O)Cc3ccccc3OCC)s2)s1 [Compound 300] |  |
| 7000 | CC(C)[C@H](N)C(=O)Nc1nnc(CCSCCc2nnc(NC(=O)Cc3ccccc3)s2)s1 [Compound 32] |  |
| > 20000 | C=CCC(C(=O)Nc1nnc(CCCCc2nnc(NC(=O)C(CC=C)c3ccccc3)s2)s1)c1ccccc1 (centres unmarked) [Compound 209] |  |
| 800 | O=C(Cc1ccccc1)Nc1nnc(CCCCc2nnc(NC(=O)[C@H]3CCCC[C@@H]3C(=O)c3ccccc3)s2)s1 [Compound 290] |  |
| 270 | N#Cc1cccc(CC(=O)Nc2nnc(CCSCCc3nnc(NC(=O)Cc4cccc(C#N)c4)s3)s2)c1 [Compound 155] |  |
| 3400 | O=C(Cc1cc2ccccc2o1)Cc1nnc(CCSCCc2nnc(NC(=O)Cc3cc4ccccc4o3)s2)s1 [Compound 193] |  |
| 10000 | O=C(Cc1cc2ccccc2o1)Nc1nnc(CCCCc2nnc(NC(=O)Cc3cc4ccccc4o3)s2)s1 [Compound 194] |  |
| 2500 | O=C(Cn1ccc2ccccc21)Nc1nnc(CCSCCc2nnc(NC(=O)Cn3ccc4ccccc43)s2)s1 [Compound 213] |  |
| 3900 | O=C(Nc1nnc(CCCCc2nnc(NC(=O)c3ccnn3-c3ccccc3)s2)s1)c1ccnn1-c1ccccc1 [Compound 229] |  |
| 32000 | CC(=O)N[C@@H](C(=O)Nc1nnc(CCSCCc2nnc(NC(=O)[C@H](NC(C)=O)c3ccccc3)s2)s1)c1ccccc1 [Compound 128] |  |
| 320 | COc1ccccc1C(C)C(=O)Nc1nnc(CCSCCc2nnc(NC(=O)C(C)c3ccccc3OC)s2)s1 (centres unmarked) [Compound 263] |  |
| 4900 | CC(CCc1nnc(NC(=O)Cc2ccccc2)s1)Cc1nnc(NC(=O)Cc2ccccc2)s1 (centres unmarked) [Compound 44] |  |
| 110 | O=C(Cc1ccccc1)Nc1nnc(CCCCc2nnc(NC(=O)Cc3cccnc3)s2)s1 [Compound 309] |  |
| 570 | O=C(Nc1nnc(CCCCc2nnc(NC(=O)C(O)c3ccccc3Br)s2)s1)C(O)c1ccccc1Br (centres unmarked) [Compound 287] |  |
| > 50000 | O=C(Nc1nnc(CCCCc2nnc(NC(=O)C3(C(F)(F)F)CC3)s2)s1)C1(C(F)(F)F)CC1 [Compound 62] |  |
| 2300 | O=C(COc1ccccc1)Nc1nnc(CCCCc2nnc(NC(=O)COc3ccccc3)s2)s1 [Compound 43] |  |
| 350 | O=C(Cc1ccccc1)Nc1nnc(CCSCc2nnc(NC(=O)C(O)c3cccc(Cl)c3)s2)s1 (centres unmarked) [Compound 376] |  |

| IC50 (no preincubation) [nM] | Compound | IC50 [nM] |
| --- | --- | --- |
| 1800 | O=C(C[C@@H](O)c1ccccc1)Nc1nnc(CCCCc2nnc(NC(=O)C[C@@H](O)c3ccccc3)s2)s1 [Compound 127] |  |
| 1200 | O=C(Nc1nnc(CCCCc2nnc(NC(=O)C3Cc4ccccc4O3)s2)s1)C1Cc2ccccc2O1 (centres unmarked) [Compound 51] |  |
| 1800 | O=C(Cc1ccncc1)Nc1nnc(CCSCCc2nnc(NC(=O)Cc3ccncc3)s2)s1 [Compound 361] |  |
| > 20000 | CC1(C)OC(=O)[C@@H](CC(=O)Nc2nnc(CCSCCc3nnc(NC(=O)C[C@H]4OC(C)(C)OC4=O)s3)s2)O1 [Compound 104] |  |
| 2000 | COC(=O)C(C(=O)Nc1nnc(CCSCCc2nnc(NC(=O)C(C(=O)OC)c3ccccc3)s2)s1)c1ccccc1 (centres unmarked) [Compound 234] |  |
| 120 | O=C(Cc1ccccc1F)Nc1nnc(CCCCc2nnc(NC(=O)Cc3ccccc3F)s2)s1 [Compound 292] |  |
| 160 | O=C(Cc1ccccc1)Nc1nnc(CCCCc2nnc(NC(=O)Cc3c(Cl)ccc(O)c3F)s2)s1 [Compound 345] |  |
| > 50000 | O=C(Nc1nnc(CCCCc2nnc(NC(=O)C(F)(F)F)s2)s1)C(F)(F)F [Compound 45] |  |
| 1300 | O=C1CC(C(=O)Nc2nnc(CCCCc3nnc(NC(=O)C4CC(=O)c5ccccc54)s3)s2)c2ccccc21 (centres unmarked) [Compound 64] |  |
| > 50000 | O=C(Nc1nnc(CCSCCc2nnc(NC(=O)C3CC4CCC3C4)s2)s1)C1CC2CCC1C2 (centres unmarked) [Compound 38] |  |
| 200 | O=C(Cc1cccnc1)Nc1nnc(CCCCc2nnc(NC(=O)Cc3cccnc3)s2)s1 [Compound 311] |  |
| 330 | CCOc1ccccc1CC(=O)Nc1nnc(CCSCCc2nnc(NC(=O)Cc3ccccc3OCC)s2)s1 [Compound 299] |  |
| > 50000 | CC(C)(CCc1nnc(NC(=O)Cc2ccccc2)s1)CCc1nnc(NC(=O)Cc2ccccc2)s1 [Compound 10] |  |
| > 50000 | CC(=O)OCC(=O)Nc1nnc(CCSCCc2nnc(NC(=O)COC(C)=O)s2)s1 [Compound 5] |  |
| 36000 | C[C@H](NC(=O)OC(C)(C)C)C(=O)Nc1nnc(CCSCCc2nnc(NC(=O)[C@H](C)NC(=O)OC(C)(C)C)s2)s1 [Compound 49] |  |
| 1800 | O=C(Nc1nnc(CCCCc2nnc(NC(=O)C3Cc4cc(Cl)ccc4O3)s2)s1)C1Cc2cc(Cl)ccc2O1 (centres unmarked) [Compound 120] |  |
| 120 | O=C(Cc1ccccc1)Nc1nnc(CCSCc2nnc(NC(=O)Cc3ccccc3)s2)s1 [Compound 199] |  |
| > 20000 | O=C(Nc1nnc(CCSCCc2nnc(NC(=O)C3C[C@@H]3c3ccccc3)s2)s1)C1C[C@@H]1c1ccccc1 (some centres unmarked) [Compound 91] |  |
| 6400 | CN(C)CC(=O)Nc1nnc(CCCCc2nnc(NC(=O)Cc3ccccc3)s2)s1 [Compound 297] |  |
| > 20000 | CC[C@@](O)(C(=O)Nc1nnc(CCSCCc2nnc(NC(=O)[C@](O)(CC)c3ccccc3)s2)s1)c1ccccc1 [Compound 142] |  |

| Compound | IC50 (no preincubation) [nM] | IC50 [nM] |
| --- | --- | --- |
| COc1ccccc1CC(=O)Nc1nnc(CCCCc2nnc(NC(=O)Cc3ccccc3OC)s2)s1 [Compound 264] | 72 |  |
| O=C(Cc1cccc(-c2cccc(F)c2)c1)Nc1nnc(CCCCc2nnc(NC(=O)Cc3cccc(-c4cccc(F)c4)c3)s2)s1 [Compound 331] | > 20000 |  |
| Cc1ccccc1C(C)C(=O)Nc1nnc(CCSCCc2nnc(NC(=O)C(C)c3ccccc3C)s2)s1 (centres unmarked) [Compound 262] | 360 |  |
| O=C(Cc1cccc(-n2cccc2)c1)Nc1nnc(CCCCc2nnc(NC(=O)Cc3cccc(-n4cccc4)c3)s2)s1 [Compound 330] | > 20000 |  |
